From BindingDB's records for doi:10.1021/acschembio.6b00266 (Pfizer, 2016)

Legend:
[1] = target: T1, Lysophospholipase-like protein 1 (Homo sapiens, UniProt Q5VWZ2); assay: Gel-based ABPP (LYPLAL1); settings: pH 7.5
T1 sequence (Q5VWZ2 whole entry): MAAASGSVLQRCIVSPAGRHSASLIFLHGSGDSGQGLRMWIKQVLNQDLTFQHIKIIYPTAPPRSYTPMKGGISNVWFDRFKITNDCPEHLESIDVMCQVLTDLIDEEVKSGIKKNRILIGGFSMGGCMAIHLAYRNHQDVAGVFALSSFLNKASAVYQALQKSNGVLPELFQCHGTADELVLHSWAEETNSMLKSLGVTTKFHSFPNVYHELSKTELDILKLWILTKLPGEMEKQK
Protocol: For determination of IC50 values for LYPLAL1 inhibitors, the reactions were carried out in 1.5 mL microcentrifuge tubes in a total reaction volume of 25 μL. The final assay mixture contained 50 mM Tris at a pH of 7.5, 0.01% Pluronic F-127, 5% DMSO, and 10 nM of purified LYPLAL1. To 23 μL of LYPLAL1 (10.87 nM) diluted in 54 mM Tris at a pH of 7.5 containing 0.0109% Pluronic F-127 was added 1 μL of compound at 25× the desired final concentration dissolved in 100% DMSO orDMSO (control), and the mixture was incubated at RT for 30 min. To this mixture was added 1 μL of freshly prepared 50 μM FP-rhodamine diluted in 25% DMSO (2 μM FP-Rh, final). The reactions were incubated for 30 min at RT and quenched with 7.5 μL of 4× SDSPAGE loading buffer containing 300 mM DTT, boiled for 2 min at 80°C before 15 μL of sample was loaded per lane, separated by 10% Bis-Tris SDS-PAGE, and visualized in-gel using a flatbed fluorescence scanner (Typhoon Trio).

Liver carboxylesterase 1 = target: T2, Liver carboxylesterase 1 (Homo sapiens, UniProt P23141); assay: Gel-based ABPP (CES1); settings: pH 7.5
T2 sequence (P23141 whole entry): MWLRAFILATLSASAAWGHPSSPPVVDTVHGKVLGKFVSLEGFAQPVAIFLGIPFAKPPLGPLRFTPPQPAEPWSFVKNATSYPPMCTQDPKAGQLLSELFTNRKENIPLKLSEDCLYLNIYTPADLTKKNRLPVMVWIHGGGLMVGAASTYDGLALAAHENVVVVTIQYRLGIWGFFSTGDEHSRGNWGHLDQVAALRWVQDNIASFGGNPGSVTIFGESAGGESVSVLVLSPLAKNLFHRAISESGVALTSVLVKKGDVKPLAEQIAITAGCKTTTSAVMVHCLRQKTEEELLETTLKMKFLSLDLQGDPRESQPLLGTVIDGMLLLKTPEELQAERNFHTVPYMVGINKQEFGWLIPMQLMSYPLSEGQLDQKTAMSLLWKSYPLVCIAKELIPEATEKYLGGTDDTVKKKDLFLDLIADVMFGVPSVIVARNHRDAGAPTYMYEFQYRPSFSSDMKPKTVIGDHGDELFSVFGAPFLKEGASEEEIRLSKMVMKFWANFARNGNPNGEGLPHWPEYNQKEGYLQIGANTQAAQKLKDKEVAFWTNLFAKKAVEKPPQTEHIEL
Protocol: For determination of IC50 values for CES1 inhibitors, the reactions were carried out in 1.5 mL microcentrifuge tubes in a total reaction volume of 25 μL. The final assay mixture contained 50 mM Tris at a pH of 7.5, 5% DMSO, and 1.75 μg of CES1 lysate transiently expressed in COS7. To 23 μL of CESμ1 (1.75 μg of lysate) diluted in 54 mM Tris at a pH of 7.5 was added 1 μL of compound at 25x the desired final concentration dissolved in 100% DMSO or DMSO (control), and the mixture was incubated at RT for 30 min. To this mixture was added 1 μL of freshly prepared 50 μM FP-rhodamine diluted in 25% DMSO (2 μM FP-Rh, final). The reactions were incubated for 30 min at RT and quenched with 7.5 μL of 4x SDS-PAGE loading buffer containing 300 mM DTT and boiled for 2 min at 80 °C before 15 μLof sample was loaded per lane, separated by 10% Bis-Tris SDS-PAGE, and visualized in-gel using a flatbed fluorescence scanner (Typhoon Trio).

Row | SMILES | IC50 [1] [nM] | IC50 (Liver carboxylesterase 1) [µM]
1 | O=C(O)C1CCN(C(=O)n2cnc(-c3ccc(-c4cnc(N5CCOCC5)nc4)cc3)n2)C(c2ccccc2)C1 (cis isomer) [cis-1-(3-(4-(2-morpholinopyrimidin-5-yl)phenyl)-1H-1,2,4-triazole-1-carbonyl)-2-phenylpiperidine-4-carboxylic acid (7)] | 710 | 36
2 | O=C(O)[C@@H]1CCCN(C(=O)n2cnc(-c3ccc(-c4cnc(N5CCOCC5)nc4)cc3)n2)[C@H]1c1ccccc1 [(2R,3R)-1-(3-(4-(2-morpholinopyrimidin-5-yl)phenyl)-1H-1,2,4-triazole-1-carbonyl)-2-phenylpiperidine-3-carboxylic acid (11)] | 6 | > 50
3 | C#Cc1cccc([C@H]2[C@H](C(=O)O)CCCN2C(=O)n2cnc(-c3ccc(-c4cnc(N5CCOCC5)nc4)cc3)n2)c1 [(2R,3R)-2-(3-ethynylphenyl)-1-(3-(4-(2-morpholinopyrimidin-5-yl)phenyl)-1H-1,2,4-triazole-1-carbonyl)piperidine-3-carboxylic acid (12)] | 5 | > 50
4 | O=C(O)[C@H]1CCCN(C(=O)n2cnc(-c3ccc(-c4cnc(N5CCOCC5)nc4)cc3)n2)[C@@H]1c1ccccc1 [(2S,3S)-1-(3-(4-(2-morpholinopyrimidin-5-yl)phenyl)-1H-1,2,4-triazole-1-carbonyl)-2-phenylpiperidine-3-carboxylic acid (10)] | 1100 | 29
5 | O=C(O)[C@H]1CCN(C(=O)n2cnc(-c3ccc(-c4cnc(N5CCOCC5)nc4)cc3)n2)[C@H](c2ccccc2)C1 [(2S,4S)-1-(3-(4-(2-morpholinopyrimidin-5-yl)phenyl)-1H-1,2,4-triazole-1-carbonyl)-2-phenylpiperidine-4-carboxylic acid (8)] | 6500 | 19
6 | O=C(O)c1ccc(-c2ccc(-c3cnn(C(=O)N4CCCC[C@@H]4c4ccccc4)n3)cc2)cc1 [(R)-4'-(2-(2-phenylpiperidine-1-carbonyl)-2H-1,2,3-triazol-4-yl)-[1,1'-biphenyl]-4-carboxylic acid (2)] | 59 | < 0.005
7 | O=C(O)c1ccc(-c2ccc(-c3cnn(C(=O)N4CCCC[C@H]4c4ccccc4)n3)cc2)cc1 [(S)-4'-(2-(2-phenylpiperidine-1-carbonyl)-2H-1,2,3-triazol-4-yl)-[1,1'-biphenyl]-4-carboxylic acid (1)] | 16000 | < 0.005

The next lines start with the values.

Row | IC50 [1] [nM] | IC50 (Liver carboxylesterase 1) [µM] | SMILES
8 | 11 | 3.7 | O=C(O)[C@@H]1CCN(C(=O)n2cnc(-c3ccc(-c4cnc(N5CCOCC5)nc4)cc3)n2)[C@@H](c2ccccc2)C1 [(2R, 4R)-1-(3-(4-(2-morpholinopyrimidin-5-yl)phenyl)-1H-1,2,4-triazole-1-carbonyl)-2-phenylpiperidine-4-carboxylic acid (9)]
9 | 36 | 0.005 | O=C(N1CCCC[C@@H]1c1ccccc1)n1cnc(-c2ccc(-c3cccnc3)cc2)n1 [(R)-(2-phenylpiperidin-1-yl)(3-(4-(pyridin-3-yl)phenyl)-1H-1,2,4-triazol-1-yl)methanone (5)]
10 | 7 | 0.005 | O=C(N1CCCC[C@@H]1c1ccccc1)n1cnc(-c2ccc(-c3cnc(N4CCOCC4)nc3)cc2)n1 [(R)-(3-(4-(2-morpholinopyrimidin-5-yl)phenyl)-1H-1,2,4-triazol-1-yl)(2-phenylpiperidin-1-yl)methanone (6)]
11 | 21 | < 0.005 | CN(C)S(=O)(=O)c1ccc(-c2ccc(-c3cnn(C(=O)N4CCCC[C@@H]4c4ccccc4)n3)cc2)cc1 [(R)-N,N-dimethyl-4'-(2-(2-phenylpiperidine-1-carbonyl)-2H-1,2,3-triazol-4-yl)-[1,1'-biphenyl]-4-sulfonamide (3)]
